According to PMC6836573, “Mitochondria-targeting fluorescent molecules for high efficiency cancer growth inhibition and imaging” (Chemical Science, 2019):
Entries after “also recorded” stand apart in the source; their conditions may differ.

What was measured:
bladder cancer T24 cell = assay: Cytotoxicity assay (direct cell counting), T24; type: cell-based; details: for IC50: T24 cells, 3 days incubation, viable cells counted
Protocol: (§1) Cell culture, imaging, and cytotoxicity assay
(§2) RPMI-1640 medium. NIH/3T3 was cultured in DMEM medium. A549 was cultured in F-12K medium. T24 were cultured in McCoy's 5A medium. All culture mediums were supplemented with 10% fetal bovine serum. The cells were incubated at 37 °C in an atmosphere containing 5% CO 2. […]
(§3) Cytotoxicity assay. All test cell lines were incubated in 96-well plates overnight at a density of 3000 cells/well. The culture medium was replaced with 200 μL of culture medium, into which the testing compound was dispersed at various concentrations (1.95 - 500 μM). After incubating for 3 days, the viable cell numbers were checked and directly counted under microscopy (10X). A minimum of 1mm×1mm area was counted from each of at least three widely separated regions of cell culture. The cell proliferation rate was calculated by the following formula: cell proliferation rate (%) = (average cell number of sample wells / average cell number of control wells) ×100%.
(§4) The intact culture medium was evaluated as a control. […]

NSCLC H838 cell = assay: Cytotoxicity assay (direct cell counting), H838; type: cell-based; details: H838 cells, 3 days incubation, viable cells counted
Protocol: as §1, §2, §3, §4
All animal experiments were performed in compliance with the Guidelines for the Care and Use of Research Animals as established by the Stanford University Animal Studies Committee. Female athymic nude mice (nu/nu) from 4−6 weeks old were obtained from Charles River Laboratories (Boston, MA, USA) and kept under sterile conditions. 5 × 106 human lung adenocarcinoma

[1] = Cytotoxicity assay (direct cell counting), NIH-3T3; type: cell-based; details: mouse; NIH-3T3 normal cells; 3 days incubation, viable cells counted
Protocol: as §1, §2, §3, §4

[2] = Relative fluorescence quantum yield; type: physicochemical; details: EtOH, relative to rhodamine 6G, excited at 425 nm
Protocol: Quantum yield. The fluorescence quantum yields of F16s were determined according to the […]
Where Φ is the quantum yield, F is the integrated area under the corrected emission spectrum, and A is the absorbance at the excitation wavelength; the subscripts x and s refer to F16s and the standard, respectively. Rhodamine 6G (ΦF = 95%) in ethanol was used as the standard. All F16s and Rhodamine 6G were dissolved in ethanol in 5 different concentrations with the absorbance lower than 0.1 at 425nm. The corresponding 5 different fluorescences of F16s and Rhodamine 6G were excited at 425 nm and the emission spectra from 450 nm to 650 nm were obtained for the following integrated area measurement. All data were analyzed using Origin Pro 9.0 software (OriginLab, Northampton, Massachusetts, USA) to get the F16s final quantum yield. […]

[3] = Photostability under continuous excitation; type: physicochemical; details: water, 10 μM, continuously excited for 50 min
Protocol: bandpass filter (MF559-34, Thorlabs, Newton, New Jersey, USA) was used to excite Mitotracker
Red. All the dyes were dissolved in water at a 10 µM concentration in 700 µL micro quartz cuvettes (10 mm, Sigma-Aldrich, St. Louis, MO, USA). They were continuously excited for 50 mins.
During this period, the fluorescence intensity was measured every 5 mins at 525 nm (F16s, Rhodamine 6G, Mitotracker Green) or 600 nm (Mitotracker Red). Relative fluorescence intensity change was monitored over time. […]

[4] = Absorption and emission spectra in water; type: physicochemical; details: 31 μM
[5] = parameters: method as in PMID 19072739, PMID 10656430, PMID 12154051; details: study halted at Phase II; cited from earlier work
[6] = parameters: method as in earlier work; details: in ethanol, used as the standard; ref 2 of the supplement; cited from earlier work

Quantum Yield [2] | Compound | IC50 (bladder cancer T24 cell; Homo sapiens, T-24, 72 h) | IC50 (NSCLC H838 cell; Homo sapiens, NCI-H838, 72 h) | IC50 at 3 days [1] | also measured
8.6% | C[n+]1ccc(/C=C/c2c(Cl)[nH]c3ccccc23)cc1 [2-ClF16] | 54.7 µM | 25.7 µM | 13.8 µM | Quantum Yield ([2]; listed as 8): under 10%; photostability ([3]; listed as 8): bleached quite easily; also recorded: poor photostability
18.1% | Cc1ccc2[nH]c(C)c(/C=C/c3cc[n+](C)cc3)c2c1 [2-Me-5-MeF16] | 68.8 µM | 17.3 µM | 161 µM | Quantum Yield ([2]; listed as 9): around 20%; photostability ([3]; listed as 9): bleached quite easily; also recorded: poor photostability; absorption peak [4]: about 450 nm
5.8% | C[n+]1ccc(/C=C/c2c(-c3ccccc3)[nH]c3ccccc23)cc1 [2-PhF16] | 4.02 µM | 3.74 µM | 0.326 µM | Quantum Yield ([2]; listed as 5): under 10%; absorption peak [4]: about 450 nm
18.5% | C[n+]1ccc(/C=C/c2c[nH]c3ccc(F)cc23)cc1 [FF16] | 6.26 µM | 3.63 µM | 75.1 µM | selectivity indices (bladder cancer T24 cell; 3T3 versus T24 and H838): > 10; Quantum Yield ([2]; listed as 7): around 20%
12.2% | C[n+]1ccc(/C=C/c2c[nH]c3c2ccc2ccccc23)cc1 [PhF16] | 1.02 µM | 1.5 µM | 0.28 µM | Quantum Yield ([2]; listed as 2): around 12%

Continued, molecule first:

Compound | Quantum Yield [2] | IC50 (bladder cancer T24 cell; Homo sapiens, T-24, 72 h) | IC50 (NSCLC H838 cell; Homo sapiens, NCI-H838, 72 h) | IC50 at 3 days [1] | also measured
Cn1cc(/C=C/c2cc[n+](C)cc2)c2cc(F)ccc21 [1-MeFF16] | 13.6% | 21.7 µM | 19.1 µM | 104 µM | Quantum Yield ([2]; listed as 1): around 12%; photostability ([3]; listed as 1): bleached quite easily; also recorded: dramatically decreased photostability
C[n+]1ccc(/C=C/c2c[nH]c3ccc(Br)cc23)cc1 [5-BrF16] | 49.1% | 1.84 µM | 1.2 µM | 11.6 µM | 
C[n+]1ccc(/C=C/c2c[nH]c3ccc(C#N)cc23)cc1 [5-CNF16] | 9.7% | 316 µM | 20 µM |  | Quantum Yield ([2]; listed as 6): under 10%
C[n+]1ccc(/C=C/c2c[nH]c3c(F)cc(I)cc23)cc1 [5-I-7-FF16] | 4.5% | 3.83 µM | 1.29 µM | 14.2 µM | Quantum Yield ([2]; listed as 10): under 10%
C[n+]1ccc(/C=C/c2c[nH]c3ccccc23)cc1 [F16, reference compound] |  |  |  |  | IC50 (bladder cancer T24 cell): 18.8 µM; IC50 (NSCLC H838 cell): 46.6 µM
CCn1c(=O)/c(=C2\Sc3ccccc3N2C)s/c1=C\c1cccc[n+]1CC.[Cl-] [MKT-077] |  |  |  |  | anti-tumor effect in clinical trial [5]: limited anti-tumor effect; nephrotoxicity in clinical trial [5]: mild nephrotoxicity
C[n+]1ccc(/C=C/c2c[nH]c3ccc([N+](=O)[O-])cc23)cc1 [NO2F16] | 1.24% | 73.8 µM | 4.7 µM | 86 µM | Quantum Yield ([2]; listed as 11): under 10%
CC/N=c1\cc2oc3cc(NCC)c(C)cc3c(-c3ccccc3C(=O)OCC)c-2cc1C [rhodamine 6G] |  |  |  |  | Quantum Yield of the standard [6]: 95%
